Assay results from paper PMC8591608, “DNDI-6148: A Novel Benzoxaborole Preclinical Candidate for the Treatment of Visceral Leishmaniasis” (Journal of Medicinal Chemistry, 2021).
Like-named read-outs stand apart in the source and are kept apart here.

Experiments:
[1] = Hamster oral pharmacokinetic study; assay type: in vivo, golden Syrian hamsters; conditions: female, golden Syrian, plasma
Procedure: […] The K2-EDTA anticoagulant was added to blood samples collected from 0.25 to 36 h, which were processed to plasma and stabilized with phosphoric acid (1% final) before analysis by LC-MS/MS. PK parameters were calculated using WinNonlin software (version 6.3).

L. donovani = test: Intramacrophage L. donovani assay; assay type: cell-based; conditions: for EC50: Leishmania donovani
Procedure: (§1) L. infantum (MHOM/MA/67/ITMAP263) and L. donovani (MHOM/ET/67/L82) were maintained in the golden (Syrian) hamster (Mesocricetus auratus). Ex vivo amastigotes were collected from the spleen of an infected donor hamster using two centrifugation purification steps: 230g for 10 min, keeping the supernatant layer, and 4100g for 30 min, keeping the pellet. The spleen parasite burden was assessed using the Stauber technique.[25] For in vitro assays, the inoculum was prepared in RPMI-1640 medium, supplemented with 200 mM L-glutamine, 16.5 mM NaHCO3, and 5% inactivated fetal calf serum. For the in vivo model, an infection inoculum containing 2 × 10^7 amastigotes/100 μL was prepared in phosphate-buffered saline (PBS).
(§2) The assay was performed in sterile 96-well microtiter plates, each well containing 10 μL of the compound dilution and 190 μL of the PMM/amastigote inoculum (3 × 10^4 cells/4.5 × 10^5 parasites per well). Parasite multiplication was compared to untreated infected controls (100% growth) and uninfected controls (0% growth). After five-day incubation, total parasite burdens were microscopically assessed after staining the cells with a 10% Giemsa solution. The results were expressed as a percentage reduction in parasite burden compared to untreated control wells. EC50 values were determined using an extended dose range (2-fold compound dilutions, 8-point concentration curve). Miltefosine was used as the reference drug.[26] For selected compounds, this assay format was also run using the L. donovani inoculum.

L. infantum [2] = test: Intramacrophage L. infantum assay; assay type: cell-based; conditions: Leishmania infantum
Procedure: as §1, §2

[3] = Liver microsome stability, hamster; assay type: in vitro ADME; conditions: golden (Syrian), hamster liver microsomes
Procedure: (§3) Tests were performed by WuXi AppTec, China. Test compounds (at 1 μM) or positive controls (testosterone, propafenone, and diclofenac) were incubated at 37 °C with liver microsomes from Balb/c mouse, golden (Syrian) hamster, Sprague-Dawley rat, Beagle dog, or human in the presence of a NADPH regenerating system and phosphate buffer (100 mM, pH 7.4) at 0.4 or 0.8 mg/mL microsomal protein. The samples were removed at time intervals from 0 to 60, 90, or 120 min and immediately mixed with cold methanol supplemented or not with acid (3% formic acid) and centrifuged prior to analysis by LC-MS/MS using tolbutamide or propranolol as internal standards.

[4] = Liver microsome stability, human; assay type: in vitro ADME; conditions: human liver microsomes
Procedure: as §3

L. infantum [5] = test: L. infantum hamster model of VL; assay type: in vivo
Procedure: as §1
Female golden hamsters for the in vivo model of visceral leishmaniasis were purchased from Janvier, France (body weight 80–100 g). This study using laboratory rodents was carried out in strict accordance with all mandatory guidelines (EU directives, including the Revised Directive 2010/63/EU on the protection of Animals used for Scientific Purposes that came into force on 01/01/2013, and the declaration of Helsinki in its latest version) and was approved by the ethical committee of the University of Antwerp, Belgium (UA-ECD 2011-74). Female golden hamsters for the pharmacokinetic study were purchased from Vital River, Beijing, China. This study was conducted following institutional review and in accordance with institutional and national guidelines at WuXi AppTec (the Institutional Animal Care and Use Committee (IACUC)). Balb/c mice for the in vivo model of visceral leishmaniasis (LSHTM) were purchased from Charles River, U.K., and related studies were conducted under license PPL 70/8427 from the U.K. Home Office.
Female golden hamsters were randomly allocated to experimental groups of six animals each, based on body weight. At the start of the experiment (Day 0), each animal was infected with L. infantum or L. donovani inoculum, delivered by intracardial injection. Six hamsters were assigned to the vehicle-treated, infected control group. Six hamsters were assigned per group (1 group/compound) for the evaluation of compound and miltefosine. […] At Day 35 (10 days after the final oral dose), all animals were euthanized and autopsies were conducted. The study evaluated the following parameters. • 1. Adverse effects: all animals were observed daily for the occurrence/presence of adverse effects. • 2. Body weight: all animals were weighed twice per week to monitor general health. • 3. Parasite burden: amastigote burdens in each target organ (liver, spleen, and bone marrow) were determined at Day 35. The organs of individual animals were weighed (except for bone marrow). Impression smears were stained with Giemsa for microscopic examination of the total amastigote burden, defined as the mean number of amastigotes per cell multiplied by the number of cells counted (minimum 500 nuclei); the results were expressed as a percentage reduction in amastigote burden compared to vehicle-treated, infected control animals.

MRC5 cytotoxicity assay = assay type: cell-based; conditions: human, MRC5SV2 cells (human embryonic lung fibroblasts), geometric mean of at least two independent tests
Procedure: (§4) Primary peritoneal mouse macrophages (PMM) were collected two days after peritoneal stimulation with a 2% potato starch suspension. MRC5SV2 cells (diploid human embryonic lung fibroblasts) were cultured in minimal essential medium (MEM) containing Earle’s salts, supplemented with L-glutamine, NaHCO3, and 5% inactivated fetal calf serum. All cultures and assays were conducted at 37 °C under an atmosphere of 5% CO2.
(§5) Assays were performed in sterile 96-well microtiter plates, each well containing 10 μL of the compound dilution and 190 μL of MRC5SV2 or PMM inoculum (3 × 10^4 cells/mL). Cell growth was compared to untreated controls (100% growth) and assay-media controls (0% growth). After three-day incubation, cell viability was assessed fluorometrically by adding resazurin (50 μL/well of a stock solution in phosphate buffer (50 μg/mL)), incubating for 4 h and measuring fluorescence (λex 550 nm, λem 590 nm). The results were expressed as a percentage reduction in cell growth compared to untreated control wells. […] Tamoxifen was included as the reference drug.

PMM cytotoxicity assay = assay type: cell-based; conditions: mouse, primary peritoneal mouse macrophages (PMM); for CC50 at 72 h / CC50 at 3 days: geometric mean of at least two independent tests
Procedure: as §4, §5

[6] = single p.o. dose 50 mg/kg, read-out: AUC0–24 after single p.o. dose of 50 mg/kg
[7] = Table 6, geometric mean of at least two independent tests
[8] = Table 4, geometric mean of at least two independent tests, read-out: intramacrophage L. infantum EC50
[9] = pH 7.4, Table 4, read-out: HamLM Clint
[10] = pH 7.4, Table 4, read-out: HLM Clint
[11] = Table 5, geometric mean of at least two independent tests, read-out: intramacrophage L. infantum amastigote EC50
[12] = pH 7.4, Table 5, read-out: HamLM Clint
[13] = pH 7.4, Table 5, read-out: HLM Clint
[14] = Table 2, geometric mean of at least three independent assays

Structure (SMILES) | EC50 (L. donovani; [7]) [µM] | EC50 (L. infantum [2]; [8]) [µM] | microsomal CLint at 2 h, 1 µM [3, 9] [µL/min/mg] | microsomal CLint at 1 μM [4, 10] [µL/min/mg] | reduction in parasite burden, bone marrow, 5 days (L. infantum [5]; 25 mg/kg BID p.o. for 5 days) [%] | reduction in parasite burden, liver, 5 days (L. infantum [5]; 25 mg/kg BID p.o. for 5 days) [%] | reduction in parasite burden, spleen, 5 days (L. infantum [5]; 25 mg/kg BID p.o. for 5 days) [%] | reduction in parasite burden, bone marrow, 5 days (L. infantum [5]; 50 mg/kg BID p.o. for 5 days) [%] | reduction in parasite burden, liver, 5 days (L. infantum [5]; 50 mg/kg BID p.o. for 5 days) [%] | reduction in parasite burden, spleen, 5 days (L. infantum [5]; 50 mg/kg BID p.o. for 5 days) [%] | CC50 at 3 days (MRC5 cytotoxicity assay; Table 4) [µM] | CC50 at 72 h (PMM cytotoxicity assay; Table 4) [µM] | other results
O=C(Nc1ccc2c(c1)B(O)OC2)c1cn(CC(F)(F)F)nc1C(F)(F)F [Compound 5, N-(1-Hydroxy-1,3-dihydrobenzo[c][1,2]oxaborol-6-yl)-1-(2,2,2-trifluoroethyl)-3-(trifluoromethyl)-1H-pyrazole-4-carboxamide] | 1 | 1.6 | 41 | < 11.9 | 77.0 | 89.7 | 90.0 | 98.0 | 99.7 | 99.2 | > 64 | 50 | AUC(0-t) [1, 6]: 21000 ng·h/mL; CC50 at 3 days (PMM cytotoxicity assay; Table 6): 53.8 µM
O=C(Nc1ccc2c(c1)B(O)OC2)c1nnc(-c2ccccn2)o1 [Compound 31, N-(1-Hydroxy-1,3-dihydrobenzo[c][1,2]oxaborol-6-yl)-5-(pyridin-2-yl)-1,3,4-oxadiazole-2-carboxamide] | 9.4 |  |  |  | 55.0 | 67.3 | 69.0 | 99.7 | 99.4 | 99.4 |  |  | AUC(0-t) [1, 6]: 21000 ng·h/mL; fold weaker against L. donovani compared with L. infantum potency (L. donovani; intramacrophage potency): about 5 fold; EC50 (L. infantum [2]; [11]): 2 µM; microsomal CLint at 2 h, 1 µM [3, 12]: 12 µL/min/mg; microsomal CLint at 2 h, 1 µM [4, 13]: 19 µL/min/mg; CC50 at 3 days (MRC5 cytotoxicity assay; Table 5): > 64 µM; CC50 at 3 days (PMM cytotoxicity assay; Table 5): > 64 µM
CCCCCCCCCCCCCCCCOP(=O)([O-])OCC[N+](C)(C)C [miltefosine, reference compound] |  |  |  |  |  |  |  |  |  |  | > 64 | 33 | EC50 (L. donovani; [14]): 10 µM; EC50 (L. infantum [2]; Table 2, geometric mean of at least three independent assays, read-out: intramacrophage L. infantum EC50): 10 µM; EC50 at 3 days (PMM cytotoxicity assay; [14]): 33 µM
O=C(Nc1ccc2c(c1)B(O)OC2)c1cn(-c2ccccn2)nn1 [Compound 22, N-(1-Hydroxy-1,3-dihydrobenzo[c][1,2]oxaborol-6-yl)-1-(pyridin-2-yl)-1H-1,2,3-triazole-4-carboxamide] |  |  |  |  |  |  |  |  |  |  |  |  | EC50 (L. infantum [2]; [11]): 1.7 µM; microsomal CLint at 2 h, 1 µM [3, 12]: 18 µL/min/mg; microsomal CLint at 1 μM [4, 13]: < 11.9 µL/min/mg; CC50 at 72 h (MRC5 cytotoxicity assay; Table 5): 44.8 µM; CC50 at 3 days (PMM cytotoxicity assay; Table 5): > 64 µM
O=C(Nc1ccc2c(c1)B(O)OC2)c1cn(C2CCOCC2)nc1C(F)(F)F [Compound 10, N-(1-Hydroxy-1,3-dihydrobenzo[c][1,2]oxaborol-6-yl)-1-(tetrahydro-2H-pyran-4-yl)-3-(trifluoromethyl)-1H-pyrazole-4-carboxamide] |  | 3 | 109 | < 11.9 |  |  |  |  |  |  | > 64 |  | CC50 at 3 days (PMM cytotoxicity assay; Table 4): > 64 µM
O=C(Nc1ccc2c(c1)B(O)OC2)c1cn(CCC(F)(F)F)nc1C(F)(F)F [Compound 6, N-(1-Hydroxy-1,3-dihydrobenzo[c][1,2]oxaborol-6-yl)-3-(trifluoromethyl)-1-(3,3,3-trifluoropropyl)-1H-pyrazole-4-carboxamide] |  | 1.3 | 114 | < 11.9 |  |  |  |  |  |  |  | 38 | CC50 at 72 h (MRC5 cytotoxicity assay; Table 4): 49 µM
Cn1nc(-c2ccccn2)cc1C(=O)Nc1ccc2c(c1)B(O)OC2 [Compound 20, N-(1-Hydroxy-1,3-dihydrobenzo[c][1,2]oxaborol-6-yl)-1-methyl-3-(pyridin-2-yl)-1H-pyrazole-5-carboxamide] |  | 34 | 121 |  |  |  |  |  |  |  | > 64 |  | microsomal CLint at 2 h, 1 µM [4, 10]: 18 µL/min/mg; CC50 at 3 days (PMM cytotoxicity assay; Table 4): > 64 µM
Cc1c(C(=O)Nc2ccc3c(c2)B(O)OC3)cnn1-c1ccccn1 [Compound 16, N-(1-Hydroxy-1,3-dihydrobenzo[c][1,2]oxaborol-6-yl)-5-methyl-1-(pyridin-2-yl)-1H-pyrazole-4-carboxamide] | 1.2 | 3.1 | 57 | < 11.9 | 72.2 | 87.8 | 87.7 | 95.1 | 99.6 | 98.5 |  | 59 | AUC(0-t) ([1]; study run using a single 25 mg/kg p.o. dose, read-out: AUC0–24 after single p.o. dose): 7900 ng·h/mL; CC50 at 72 h (MRC5 cytotoxicity assay; Table 4): 61 µM; CC50 at 3 days (MRC5 cytotoxicity assay; Table 6): 61.1 µM; CC50 at 3 days (PMM cytotoxicity assay; Table 6): > 64 µM
